From the NIST ThermoML archive (doi:10.1016/j.jct.2010.07.006)
Where “and” joins values, the source holds several entries; their conditions need not be identical. Equal entries are not always repeated.

Conditions: Crystal, Calculated from knudsen effusion weight loss

Cc1cc(C(=O)O)c(C)o1 [2,5-dimethyl-3-furancarboxylic acid]
Conditions	vapor or sublimation pressure
309.19 K	0.0001409 kPa and 0.000132 kPa and 0.0001359 kPa
311.12 K	0.0001806 kPa and 0.0001768 kPa and 0.0001708 kPa
313.08 K	0.0002273 kPa and 0.0002279 kPa and 0.0002259 kPa
315.18 K	0.0002809 kPa and 0.0002804 kPa and 0.0002914 kPa
317.12 K	0.0003673 kPa and 0.0003617 kPa and 0.0003524 kPa
319.08 K	0.0004503 kPa and 0.0004556 kPa and 0.000449 kPa
321.18 K	0.0005801 kPa and 0.0005612 kPa and 0.000567 kPa
323.09 K	0.0007336 kPa and 0.0007218 kPa and 0.0007101 kPa
325.07 K	0.0009185 kPa and 0.000908 kPa and 0.0008953 kPa
325.19 K	0.0009292 kPa and 0.000927 kPa and 0.0008864 kPa
327.1 K	0.001147 kPa and 0.001128 kPa and 0.001102 kPa
